Where two headings read alike, the source gives them in different places.
How the values were obtained:
[1] = test system: ddy strain of male mice; experiment: Analgesic activity, Haffner method (morphine threshold dose, clamp); type: in vivo, mouse (ddy); settings: Mus musculus; for inhibition in vivo at 100 mg/kg: 100 mg/kg oral, 45 minutes before morphine hydrochloride, read-out: Analgesic activity, Haffner method, inhibitory ratio
How it was run: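 Fasted male ddy mice weighing 20-25 g were given the test compound orally as a suspension in 0.25% carboxymethylcellulose. After 45 minutes, a threshold dose (1.5-2.5 mg/kg body weight) of morphine hydrochloride was injected subcutaneously, and clamp-induced pain reactions were watched for 1 hour. Analgesic activity was expressed as inhibitory ratio (%) or as ED50.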

[2] = test system: Wistar strain of male rats; experiment: Anti-inflammatory activity (acute carrageenin-induced inflammatory test, hindpaw); type: in vivo, rat (Wistar); settings: Rattus norvegicus, read-out: Anti-inflammatory activity, inflammation inhibitory ratio
Method: Next, several tests for determining the pharmacological properties, in that acute toxicity, anti-pyretic activity, analgesic activity and anti-inflammatory activity of the present 1,1,3,5-substituted biuret compounds of the formula (1) were conducted and the test results are shown in Table (2). In the tests, each compounds to be tested was used as a suspension in 0.25% carboxymethylcellulose solution. Methods for testing are explained as follows:
According to the method of acute carrageenin-induced inflammatory test [Folia Pharmacologia Japonica, Vol. 56, pp. 575 (1960)], the Wistar strain of male rats (body weight, 150-180 g) were used as test animals. The rats were fasted overnight, 100 mg/kg body weight of the test compound was administered orally, then 1 hour after the administration, 0.1 ml of 1% carrageenin solution, as the inflammation inducing agent, was injected subcutaneously to the hindpaw of the rat and the volume of the hindpaw was measured at time sequences, Anti-inflammatory activity of the test compound was calculated as inflammation inhibitory ratio (%) at 3 hours after the injection of inflammation inducing agent.

[3] = test system: Wistar strain of male rats; experiment: Anti-pyretic activity (dry-yeast-induced fever); type: in vivo, rat (Wistar); settings: oral (dose not given), up to 4 hours after administration
How it was run: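 Male Wistar rats (150–180 g), fasted overnight, given 10% dry-yeast suspension subcutaneously (1 ml/100 g). Compound dosed orally as 0.25% CMC suspension 5 h later; body temperature followed, febrile index integrated to 4 h post-dose and expressed as % inhibition.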

[4] = test system: ddy strain of male mice; experiment: Analgesic activity, acetic acid-induced stretching method; type: in vivo, mouse (ddy); settings: Mus musculus; for inhibition in vivo at 100 mg/kg: po, read-out: Analgesic activity, acetic acid-induced stretching method, inhibitory ratio
How it was run: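 Fasted male mice (20-25 g) received test compound orally, usually 100 mg/kg, as a 0.25% carboxymethylcellulose suspension, then 0.2 ml 0.7% acetic acid i.p. 1 hour later. Stretching was scored and activity given as % inhibition; some values are ED50 (mg/kg).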

[5] = Acute toxicity (oral, mice, 7 days observation); type: in vivo; settings: mouse, in vivo; oral, male ddy mice, 7 days observation; Δ mark; read-out: 50% lethal dose, LD50
How it was run: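 Overnight-fasted male ddy mice (20-25 g) received compound orally as a suspension in 0.25% carboxymethylcellulose, observed 7 days. Lethal dose (mg/kg) taken from deaths per mice tested; LD50 given where marked.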

[6] = oral, Δ mark, range in parentheses
[7] = 100 mg/kg oral, 3 hours after carrageenin

| Compound | ED50 [1, 6] | inhibition in vivo at 100 mg/kg [2, 7] | Anti-pyretic activity, inhibitory ratio (febril index) [3] | ED50 [4, 6] | LD50 at 168 h [5] | inhibition in vivo at 100 mg/kg [1] | inhibition in vivo at 100 mg/kg ([2]; po, 3 h) | inhibition in vivo at 100 mg/kg [4] | inhibition in vivo at 100 mg/kg ([2]; po, 2 h) |
| --- | --- | --- | --- | --- | --- | --- | --- | --- | --- |
| CNC(=O)N(C)C(=O)N(C)c1ccccc1 [Compound No. 53, 1,3,5-Trimethyl-1-phenylbiuret] | 135 mg/kg | 76% | 108% | 68 mg/kg | 1350 mg/kg |  |  |  |  |
| CCN(C(=O)N(C)C(=O)NC)c1ccccc1 [Compound No. 58, 1-ethyl-3,5-dimethyl-1-phenylbiuret] |  |  | 137% |  | 1000 mg/kg | 62.5% | 60% | 75% |  |
| CCN(C(=O)N(C)C(=O)NC)c1ccc(OC)cc1 [Compound No. 61, 1-Ethyl-1-(4-methoxyphenyl)-3,5-dimethylbiuret] |  | 52% | 35% |  | 1250 mg/kg | 25% |  | 75% |  |
| CCNC(=O)NC(=O)N(C)c1ccccc1 [compound 50, 1-Methyl-1-phenyl-5-ethylbiuret] |  | 38% | 90% |  | 1960 mg/kg | 37.5% |  | 50% |  |
| CCNC(=O)N(C)C(=O)N(C)c1ccccc1 [compound 54, 1,3-Dimethyl-1-phenyl-5-ethylbiuret] |  | 54% | 58% |  | 1350 mg/kg | 75% |  | 37.5% |  |
| CC(C)NC(=O)N(C)C(=O)N(C)c1ccccc1 [compound 56, 1,3-Dimethyl-1-phenyl-5-isopropylbiuret] |  |  | 65% |  | 1320 mg/kg | 12.5% | 47% | 25% |  |
| CCN(C(=O)N(C)C(=O)NC)c1ccccc1Cl [compound 59, 1-Ethyl-1-(2-chlorophenyl)-3,5-dimethylbiuret] |  |  | 64% |  | 810 mg/kg | 12.5% |  | 37.5% | 51% |
